Assay results reported in US20250235545A1, “POLYPEPTIDE CONJUGATE AND USE THEREOF” (SHANGHAI CHIXI BIOMEDICAL TECHNOLOGY CO., LTD, priority 2024, published 2025).
In brackets after ≈: the same amount, converted by molar mass. Where two headings read alike, the source gives them in different places. Where a SMILES comes first, the peptide text is derived from it. The star is where a group is joined. X2 = CCCCN(CCc1c2c(nc3ccccc13)-c1cc3c(c(=O)n1C2)COC(=O)[C@]3(O)CC)*; X4 = CCCN(CCc1c2c(nc3ccccc13)-c1cc3c(c(=O)n1C2)COC(=O)[C@]3(O)CC)*; Propanoyl(3-maleimido) = O=C1C=CC(=O)N1CCC(=O)*; PEG6 = NCCOCCOCCOCCOCCOCCOCCC(=O)O

Key:
[1] = tested on: sarcoma SJSA-1 tumor model
Method in brief: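 Female BALB/c nude mice (6-8 weeks) bearing subcutaneous right-chest SJSA-1 xenografts from 2×10^7 cells were randomized, three per group, once tumors reached at least 100 mm^3. Treatment given once a week for three weeks starting day 1; saline controls.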

[2] = tested on: colo320 colorectal cancer tumor model
Method in brief: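 Dosing was once a week for four weeks, with saline as control, in randomized groups of three mice. Groups were formed after subcutaneous colo320 xenografts (7.5×10^6 cells, right chest) grew to ≥120 mm^3 in female 6–8-week-old BALB/c nude mice.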

[3] = tested on: sarcoma SJSA-1 tumor model; test: Efficacy in animal model of sarcoma SJSA-1, 30 mg/kg once a week for two weeks (Example 40); type: in vivo, BALB/c mice; conditions: for SJSA-1 (sarcoma tissue) mean tumor volume (mm^3) Day 1 / SJSA-1 (sarcoma tissue) mean tumor volume (mm^3) Day 4 / SJSA-1 (sarcoma tissue) mean tumor volume (mm^3) Day 7 / SJSA-1 (sarcoma tissue) mean tumor volume (mm^3) Day 10 / Mouse weight (%) on Day 14 / SJSA-1 (sarcoma tissue) growth rate (%) on Day 14 / SJSA-1 (sarcoma tissue) mean tumor volume (mm^3) Day 14: 30 mg/kg once a week for two weeks
Method: Test objective: To further compare the antitumor efficacy of different polypeptide Linkers in an animal tumor model of sarcoma SJSA-1.
Test drug: Polypeptide conjugate and normal saline control group.
The control group was administered normal saline. Administration was performed once a week for two weeks.

[4] = Tumor homogenate activation efficiency, ovarian cancer tissue (Examples 28, 37); type: in vitro ADME; conditions: pH 5.0, 37° C., 2 h
Method in brief: (§1)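 HPLC after 2 h at 37° C. tracks conjugate loss and Belotecan gain, with release expressed as Belotecan peak area as a fraction of all Belotecan-containing peaks. Reaction: 100 μg homogenate plus 1 mg/ml conjugate in 50 mM MES, 250 mM NaCl, pH 5.0.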

[5] = Tumor homogenate activation efficiency, sarcoma tissue (Examples 28, 37); type: in vitro ADME; conditions: pH 5.0, 37° C., 2 h
Method in brief: as §1

[6] = Tumor homogenate activation efficiency, breast cancer tissue (Examples 28, 37); type: in vitro ADME; conditions: pH 5.0, 37° C., 2 h
Method in brief: as §1

[7] = Tumor homogenate activation efficiency, non-small cell lung cancer tissue (Examples 28, 37); type: in vitro ADME; conditions: pH 5.0, 37° C., 2 h
Method in brief: as §1

[8] = Homogenate activation efficiency, heart tissue (Examples 28, 37); type: in vitro ADME; conditions: pH 5.0, 37° C., 2 h
[9] = tested on: colo320 (colorectal cancer tissue); test: cells; type: cell-based; conditions: CCK8, 48 h; Table 6
Method in brief: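 Colo320 cells, 5,000 per well, exposed to drug concentration series for 48 h at 37 °C, 5% CO2 (0.1% DMSO controls). Viability by CCK8, absorbance at 450 nm after about 2 h. Survival rates and IC50 calculated.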

[10] = Tumor homogenate activation efficiency, colorectal cancer tissue (Example 37); type: in vitro ADME; conditions: pH 5.0, 37° C., 2 h; Table 10
Method in brief: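 Polypeptide conjugate at 1 mg/ml in 50 mM MES, 250 mM NaCl, pH 5.0, incubated with 100 μg colorectal tumor tissue homogenate at 37° C for 2 h. HPLC read-out; release percentage = Belotecan peak area over total area of Belotecan and all Belotecan-containing compounds.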

[11] = 15 mg/kg once a week for three weeks, Table 2
[12] = 45 mg/kg once a week for three weeks, Table 2
[13] = 15 mg/kg once a week for four weeks, Table 3
[14] = 45 mg/kg once a week for four weeks, Table 3
[15] = Table 14 (Example 43), dose 45 mg/kg, once a week for four weeks, BALB/c mice
[16] = 15 mg/kg once a week for three weeks, Table 7
[17] = 45 mg/kg once a week for three weeks, Table 7
[18] = 15 mg/kg once a week for four weeks, Table 8
[19] = 45 mg/kg once a week for four weeks, Table 8

Compound | Mouse weight (%) [2, 15] | colo320 (colorectal cancer cell) growth rate (%) [2, 15] | colo320 (colorectal cancer cell) mean tumor volume (mm^3) [2, 15] | SJSA-1 (sarcoma tissue) mean tumor volume (mm^3) Day 1 [3] | SJSA-1 (sarcoma tissue) mean tumor volume (mm^3) Day 4 [3] | SJSA-1 (sarcoma tissue) mean tumor volume (mm^3) Day 7 [3] | SJSA-1 (sarcoma tissue) mean tumor volume (mm^3) Day 10 [3] | Mouse weight (%) on Day 14 [3] | SJSA-1 (sarcoma tissue) growth rate (%) on Day 14 [3] | SJSA-1 (sarcoma tissue) mean tumor volume (mm^3) Day 14 [3] | IC50 Colorectal cancer tissue (colo320) [9] | Mouse weight (%) [1, 16] | SJSA-1 (sarcoma tissue) growth rate (%) [1, 16] | SJSA-1 (sarcoma tissue) mean tumor volume (mm^3) [1, 16] | Mouse weight (%) [1, 17] | SJSA-1 (sarcoma tissue) growth rate (%) [1, 17] | SJSA-1 (sarcoma tissue) mean tumor volume (mm^3) [1, 17] | Mouse weight (%) [2, 18] | colo320 (colorectal cancer cell) growth rate (%) [2, 18] | colo320 (colorectal cancer cell) mean tumor volume (mm^3) [2, 18] | also measured
CC[C@@]1(O)C(=O)OCC2=C1C=C1c3nc4ccccc4c(CCN(C(=O)OCc4ccc(NC(=O)[C@H](CC(N)=O)NC(=O)[C@H](C)NC(=O)[C@H](C)NC(=O)CCOCCOCCOCCOCCOCCOCCNC(=O)CCN5C(=O)C=CC5=O)cc4)C(C)C)c3CN1C2 [MI-6PEG-AAN-PAB-Belotecan] | +6% | 573.97% | 635.7 mm^3 | 131.25 mm^3 | 208.13 mm^3 | 554.02 mm^3 | 706.21 mm^3 | −6.9% | 1005.49% | 1319.7 mm^3 |  |  |  |  |  |  |  |  |  |  | Mouse weight (%) [1, 11]: +6%; SJSA-1 (sarcoma tissue) mean tumor volume (mm^3) [1, 11]: 1357 mm^3; SJSA-1 (sarcoma) Growth rate (%) [1, 11]: 1174.19%; Mouse weight (%) [1, 12]: −5%; SJSA-1 (sarcoma tissue) mean tumor volume (mm^3) [1, 12]: 873.5 mm^3; SJSA-1 (sarcoma) Growth rate (%) [1, 12]: 753.02%; Mouse weight (%) [2, 13]: +29%; colo320 (colorectal cancer cell) growth rate (%) [2, 13]: 1105.40%; colo320 (colorectal cancer cell) mean tumor volume (mm^3) [2, 13]: 1224.3 mm^3; Mouse weight (%) [2, 14]: +6%; colo320 (colorectal cancer cell) growth rate (%) [2, 14]: 573.97%; colo320 (colorectal cancer cell) mean tumor volume (mm^3) [2, 14]: 635.7 mm^3; tumor suppression effect (in words) ([3]; 30 mg/kg, SJSA-1 model, Example 40): neither MI-6PEG-AAGP-D2 nor MI-6PEG-AAN-PAB-Belotecan had a satisfactory tumor suppression effect; Percentage of release efficiency (%) Ovarian cancer tissue (A2780) ([4]; Table 5): 75.3%; Percentage of release efficiency (%) Sarcoma tissue (SJSA1) ([5]; Table 5): 78.5%; Percentage of release efficiency (%) Breast cancer tissue (SKBR3) ([6]; Table 5): 69.4%; Percentage of release efficiency (%) Non-small cell lung cancer tissue (A549) ([7]; Table 5): 79.9%; Percentage of release efficiency (%) Heart tissue ([8]; Table 5): 2.7%
CCCN(CCc1c2c(nc3ccccc13)-c1cc3c(c(=O)n1C2)COC(=O)[C@]3(O)CC)C(=O)[C@H](CC(C)C)NC(=O)[C@H](CC(N)=O)NC(=O)[C@H](C)NC(=O)[C@H](C)NC(=O)CCOCCOCCOCCOCCOCCOCCNC(=O)CCN1C(=O)C=CC1=O [MI-6PEG-AANL-D3] ({Propanoyl(3-maleimido)-PEG6}-AANL-X4) |  |  |  | 137.17 mm^3 | 436.65 mm^3 | 735.18 mm^3 | 1111.34 mm^3 | +4.2% | 1316.37% | 1805.67 mm^3 | 3.28 µg/mL (≈ 2.54 µM) | +21% | 1207.54% | 1521.5 mm^3 | +16% | 941.15% | 1205.8 mm^3 | +18% | 1088.75% | 1279.8 mm^3 | Mouse weight (%) [2, 19]: +18%; colo320 (colorectal cancer cell) growth rate (%) [2, 19]: 641.35%; colo320 (colorectal cancer cell) mean tumor volume (mm^3) [2, 19]: 753.9 mm^3; Percentage of release efficiency (%) Ovarian cancer tissue (A2780) ([4]; Table 10): 69.5%; Percentage of release efficiency (%) Sarcoma tissue (SJSA1) ([5]; Table 10): 90%; Percentage of release efficiency (%) Breast cancer tissue (SKBR3) ([6]; Table 10): 67.9%; Percentage of release efficiency (%) Non-small cell lung cancer tissue (A549) ([7]; Table 10): 66.8%; Percentage of release efficiency (%) Colorectal cancer tissue (colo320) [10]: 71.6%; Percentage of release efficiency (%) Heart tissue ([8]; Table 10): 3.9%
CCCCN(CCc1c2c(nc3ccccc13)-c1cc3c(c(=O)n1C2)COC(=O)[C@]3(O)CC)C(=O)[C@H](CC(C)C)NC(=O)[C@H](CC(N)=O)NC(=O)[C@H](C)NC(=O)[C@H](C)NC(=O)CCOCCOCCOCCOCCOCCOCCNC(=O)CCN1C(=O)C=CC1=O [MI-6PEG-AANL-D4] ({Propanoyl(3-maleimido)-PEG6}-AANL-X2) | +18% | 832.33% | 978.4 mm^3 | 142.01 mm^3 | 486.37 mm^3 | 739.25 mm^3 | 1068.21 mm^3 | +2.3% | 1137.43% | 1615.26 mm^3 | 5.40 µg/mL (≈ 4.14 µM) | +19% | 1031.84% | 1289.8 mm^3 | +19% | 924.41% | 1149.5 mm^3 | +17% | 1081.25% | 1271.1 mm^3 | Mouse weight (%) [2, 19]: +18%; colo320 (colorectal cancer cell) growth rate (%) [2, 19]: 832.33%; colo320 (colorectal cancer cell) mean tumor volume (mm^3) [2, 19]: 978.4 mm^3; Percentage of release efficiency (%) Ovarian cancer tissue (A2780) ([4]; Table 10): 66.7%; Percentage of release efficiency (%) Sarcoma tissue (SJSA1) ([5]; Table 10): 81.2%; Percentage of release efficiency (%) Breast cancer tissue (SKBR3) ([6]; Table 10): 75.3%; Percentage of release efficiency (%) Non-small cell lung cancer tissue (A549) ([7]; Table 10): 77.7%; Percentage of release efficiency (%) Colorectal cancer tissue (colo320) [10]: 76.5%; Percentage of release efficiency (%) Heart tissue ([8]; Table 10): 4%
